Experimental data reported in article PMC11490426, “Structure-activity relationship of amino acid analogs to probe the binding pocket of sodium-coupled neutral amino acid transporter SNAT2” (Amino Acids, 2024).
Structures can show the parent of a compound that is named as a salt.

Legend:
[1] = target: T1, SNAT2 (Homo sapiens, UniProt Q96QD8); experiment: Inhibition of SNAT2-mediated 3H-glycine uptake in hyperosmotically treated PC-3 cells; format: cell-based
T1 construct: hyperosmotically treated PC-3 cells, known to upregulate SNAT2; endogenous in cells; host or cells: PC-3 prostate cells exposed to hyperosmotic medium for 24 h
T1 sequence (Q96QD8 1-506): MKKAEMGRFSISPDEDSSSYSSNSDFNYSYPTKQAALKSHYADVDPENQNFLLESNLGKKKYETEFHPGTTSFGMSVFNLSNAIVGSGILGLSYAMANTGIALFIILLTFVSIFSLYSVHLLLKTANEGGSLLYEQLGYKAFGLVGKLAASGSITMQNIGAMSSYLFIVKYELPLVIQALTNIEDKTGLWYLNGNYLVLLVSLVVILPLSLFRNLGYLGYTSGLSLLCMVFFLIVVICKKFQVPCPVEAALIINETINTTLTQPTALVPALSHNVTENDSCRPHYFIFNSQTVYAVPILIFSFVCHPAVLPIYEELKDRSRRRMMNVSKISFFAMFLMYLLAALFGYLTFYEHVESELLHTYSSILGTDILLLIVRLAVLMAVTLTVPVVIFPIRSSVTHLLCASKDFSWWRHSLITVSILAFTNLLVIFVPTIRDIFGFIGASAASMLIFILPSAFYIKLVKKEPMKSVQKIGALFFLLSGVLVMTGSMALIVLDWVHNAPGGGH
Experimental: Where Y is the % uptake, X is the concentration of the inhibitor, Top and Bottom are the top and bottom plateau respectively, and IC50 is the half maximal inhibitory concentration. These studies were performed in at least 3 independent cell passages (n = 3) and a curve was defined for each independent passage. However, for each compound, the top and bottom were constrained to be the same amongst the different cell passages.

[2] = target: T1, SNAT2; experiment: FLIPR membrane potential (FMP) assay in PC-3 cells; format: cell-based; conditions: hyperosmotically treated PC-3 cells
Experimental: PC-3 cells exposed to hyperosmotic media for 24 h were used to identify SNAT2 substrates in the FMP assay. The media was aspirated, and the cells were preincubated in HBSS + for 10 min at 37 °C and 220 rpm. Then the buffer was aspirated, and cells were then incubated in 50 µL HBSS + containing 0.55 mg ⋅ mL^− 1 (1x) FMP probe (Blue component A from Molecular Devices, San Jose, CA, USA) for 30 min at 37 °C and 220 rpm. […] First, the baseline was measured for 30 s by measuring each well every 3 s. The plate was then removed from the reader and 50 µL of substrate solutions containing 0.55 mg ⋅ mL^− 1 FMP probe was added. These solutions were prepared by mixing equal parts solution containing 2x FMP probe and solutions containing 4x the final concentration of substrate. […] Following this, the baseline of the next column was measured and followed the same procedure as just described.
For the FMP data, the baseline was defined as the mean fluorescence of the first data point before substrate addition. The baseline of each well was then subtracted from the data point to get the ΔF. Plotting ΔF as a function of time and calculating the area under the curve (AUC) after substrate addition was used as a measure of SNAT2 activity.

[3] = target: T1, SNAT2; experiment: Intracellular amino acids and analogs quantified by OPA derivatization and HPLC-Fl after uptake in PC-3 cells; format: cell-based; conditions: 0.4 mM compound, 30 min uptake, pH 7.4
Experimental: Derivatization of AAs and analogs using o-phthalaldehyde (OPA) and 2-mercaptoethanol (2-ME) to make fluorescent derivatives was used to measure the intracellular amounts of AAs and analogs following uptake in hyperosmotically treated PC-3 cells. Before starting the experiment, the medium was aspirated, and the cells were preincubated in HBSS + for 15 min at 37 °C and 220 rpm. The cells were then incubated with 500 µL HBSS+ (background) or HBSS + containing AAs or analogs at given concentrations for 30 min at 37 °C and 220 rpm. After aspirating the donor solutions, the cells were washed thrice with 500 µL of ice-cold PBS while keeping the cells on ice. 200 µL of ice-cold 1x-trypsin was added to each well and allowed to distribute for 20–30 min while keeping the cells on ice. The plate was then transferred to an incubating microplate shaker at 37 °C and 220 rpm for about 8 min or until the cells had detached. 300 µL of ice-cold PBS was added to each well to resuspend the cells and transfer them to centrifuge tubes. The cells were centrifuged at 1000 G for 5 min (4 °C), the supernatant was removed, the cells were resuspended in 300 µL ice-cold PBS, and then centrifuged again at 1000 G for 5 min (4 °C). After removing the supernatant, the cell pellet was lysed by adding 100 µL of 80% methanol (20% ultrapure water) and placing the tubes in an ultrasonic bath for 10 min. The tubes were then centrifuged at 15,000 G for 15 min (4 °C) and the resulting supernatant was used for analysis.
The OPA reagent was prepared by spiking with 2 µL 2-ME per mL of OPA regent and was considered stable for use within one day. 10 µL of the cell samples or standards containing a mixture of the AAs and analogs of interest were placed in HPLC vials with 100 µL inserts. […] The autosampler kept the samples at 10 °C and the pretreatment function was used to automatically mix the samples with 10 µL of the OPA reagent and wait 4 min before loading 2 µL onto a YMC-Triart C18 column (75 × 3.0 mm, 1.9 μm, Mikrolab Aarhus, Viby J, Denmark). […] The fluorescence detector was set to excite at 350 nm and detect at 450 nm.
The resulting chromatograms were integrated and the area under the curve (AUC) of the standard samples was used to generate standard curves to determine the concentration of AAs and analogs in the cell samples. […] Amino acid levels detected in the background cell samples were subtracted from the other cell samples.

[4] = tested on: PC-3 cells; experiment: CellTiter-Glo viability assay; format: cell-based, human; conditions: 20 mM, after 10 min of exposure, hyperosmotically treated PC-3 cells
Experimental: ^3H-glycine uptake in hyperosmotically treated PC-3 cells was performed as previously described (Jakobsen et al. [2023]). 5-minute uptake of 0.5 µCi ⋅ mL^− 1 3H-glycine (11.1 nM) was used, and each uptake was normalized to the uptake obtained in a control situation (31.2 ± 5.7 fmol ⋅ cm^− 2 ⋅ min^− 1) without subtracting the background uptake (2.62 ± 0.67 fmol ⋅ cm^− 2 ⋅ min^− 1). Compounds that inhibited uptake by more than 20% at the highest tested concentrations were tested in the CellTiter-Glo viability assay (Promega, Madison, WI, USA), to rule out that the observed inhibition was not caused by reduced cell viability (Fig. S1 in Supplementary Information SI).
Fig. S1 Cell viability of hyperosmotically treated PC-3 cells after 10 min incubation with various amino acids and analogs using the CellTiter-Glo assay. […] The plate was placed in a CLARIOstar® Plus plate reader from BMG LABTECH (Ortenberg, Germany) at room temperature and was then shaken for 2 minutes at 220 rpm. Luminescence was measured after 0, 5, 10, and 15 minutes. Background luminescence (obtained from adding CellTiter-Glo reagent to HBSS+ containing wells without cells) was subtracted from the sample luminescence and normalized to control wells only exposed to HBSS+ to determine the % viability. […] Statistically significant differences from the control detected by one-way ANOVA are shown (*: p < 0.05).

[5] = Stability in aqueous solution by HPLC-UV; format: physicochemical; conditions: 1 mM in ultrapure water, room temperature, over 3 days
Source text: The resulting chromatograms were integrated and the area under the curve (AUC) of the standard samples was used to generate standard curves to determine the concentration of AAs and analogs in the cell samples. The pooled standard curves and example chromatograms can be seen in the SI (Figs. S2, S3). Amino acid levels detected in the background cell samples were subtracted from the other cell samples. L-Alanine benzyl ester only generated a peak with an equal retention time as L-alanine. It was assessed that the addition of OPA reagent increased the hydrolysis of the ester, thus only creating the L-alanine OPA derivative. […] Thus, the L-alanine peak was used to measure the presence of L-alanine benzyl ester in samples.
Fig. S4 HPLC-UV chromatograms of L-alanine benzyl ester and benzyl alcohol dissolved in ultrapure water. The samples were analyzed using a Waters 2695 HPLC system connected to a Waters 2487 Dual λ Absorbance Detector (Waters Corporation, MA, USA). The peaks were separated using a Sunfire C18 column (4.6 x 150 mm, 3.5 µm, Waters Corporation, MA, USA) at 45 °C and with a 0.7 ml/min flow of 70% mobile phase A (90/10% H2O/MeCN + 0.1% trifluoroacetic acid (TFA)) and 30% mobile phase B (10/90% H2O/MeCN + 0.1% TFA). 10 µL samples were injected and the peaks were detected at 254 nm. […]

Structure (SMILES): C[C@H](N)C(=O)OCc1ccccc1 [L-Alanine benzyl ester, L-alanine benzyl ester hydrochloride]
- IC50 ([1]; hyperosmotically treated PC-3 cells, 5 min uptake of 11.1 nM 3H-glycine, pH 7.4, read-out: IC50): 390 µM
- inhibition of 3H-glycine uptake at different pH levels ([1]; pH 6.8, 7.4 and 8.0, 0.4 mM L-alanine benzyl ester or 0.2 mM L-alanine, two-way ANOVA): no significant differences in inhibition at the different pH levels
- AUC of fluorescence response-time curve ([2]; 5 mM compound): 8.1 ± 1.4 10^5 RFU ∙ s
- AUC of fluorescence response-time curve ([2]; 10 mM compound): -1.4 ± 3.2 10^5 RFU ∙ s
- AUC, % of 10 mM L-alanine ([2]; 10 mM compound): -6.6 ± 14%
- response in the FMP assay (stimulation of SNAT2 activity) ([2]; result in words): little or no stimulation of SNAT2 activity
- fold change of intracellular accumulation in absence vs presence of 10 mM L-glutamine [3]: 6.7 fold
- decrease in cell viability [4]: 23%
- stability in aqueous solution [5]: stability was confirmed
